Columns and labels:
[1] = system: dental pulp tissue (dental pulp extraction with chronic pulpitis); assay: Live bacterial cell counting after cannabinoid treatment, dental pulp tissue; type: cell-based, human
Procedure: (§1) Summary: The method includes: • a. randomized sampling of oral plaque biofilm from different consumers with 0-+4 DPSI, dental pulp extraction with chronic pulpitis; • b. cultivation of the samples in incubator with 37° C., for 1 day. The colonies underwent treatment with different types of compounds CBC, CBD, CBG, CBGA, CBN for 5 minutes; • c. staining with fluorescent special dyes for live bacterial cells, following the cannabinoid compounds' treatment and using one referral without cannabinoids treatment; • d. mounting on 6 channel micro slide dishes with 0.1 high; • e. imaging with Cytetion 5 Biotek microscope on 40 magnification, analyzing and running live cell counting.
Experimental methods: FIG. 6 depicts the steps of the methodology used in this protocol. The methodology includes the following steps: • a. Sample cultivation: Samples are collected with Flexi Grip 1702 Paro interdental brush. Cultivation on AGAR Petri Dish 100/15 mm incubated for 24 hours in 37° C. • b. Compound Treatment: The colonies are treated with 25%, 12.5% dilutions from 5 different type extracts from grower A+B. 0.5 μL compound were place in each vial, 3 colony spots were added, the mixture was agitated in centrifuge with 6-8.000 rpm for 1.5 min and suspended in 500 μL PBS. • c. Staining Mounting: Staining kit Bacstain—CTC Rapid Staining kit BS02 was used. All 5 samples and 1 referral were stained. […]

dental plaque microbes = assay: Culture of dental plaque microbes, streak applied to inoculum, 2 days incubation (FIG. 5); type: cell-based; conditions: 2 days of incubation
[2] = system: human oral biofilms (dental plaque); assay: Live bacterial cell counting (CTC staining, Cytation 5 imaging) after cannabinoid treatment of dental plaque colonies; type: cell-based
Procedure: This study evaluates different extracts/compounds on different types of human oral biofilms that normally are plaque-generating, further inducing light to severe periodontal diseases, as scored by DPSI (Dutch periodontic screening index).
as §1, with “counting. […]” for “counting.”
The same procedure was employed on the second slide with the cells treated with 25% dilution of the cannabinoid of grower B. Accordingly slide 3 had the cells from grower A with 12.5% dilution and slide 4 had the cells 12.5% dilution from grower B. • d. […] Imaging modes include fluorescence, brightfield, color brightfield and phase contrast for a broad range of applications including live cell imaging, phenotypic assays, and 3D spheroids. […]

[3] = system: dental bacteria taken from various patients (oral flora); assay: In vitro determination of sensitivity of dental biofilm flora from individual patients to cannabinoid test panels; type: cell-based
Source text: Methods of the present invention are hereby exemplified. The trial included two stages: • a. Stage 1: In vitro determination of sensitivity of dental biofilm flora from individual patients to cannabinoid test panels. • b. Stage 2: Effectiveness of toothpaste compounded to individual patient's best cannabinoid panel formulations. Stage 1: In Vitro Determination of Sensitivity of Dental Biofilm Flora from Individual Patients to Cannabinoid Test Panels.
Ten (10) subjects (patients A-J) were involved in the trial. Dental biofilm was collected of these subjects by means of swabs, scrapes and other devices. The bacteria of this dental biofilm were characterized by conventional methods such as growth on selective media, microscopic examination and lab on-chip-laser analysis (e.g. Parochip).
Patient's bacteria from patients A-J were tested in vitro on substrates seeded with a panel of cannabinoids as illustrated in table 1 below:
Column Panels: • 1=CBDA; • 2=CBDA+CBNA; • 3=CBDA+CBNA+CBGA; • 4=CBDA+CBNA+CBGA+CBCA; • 5=CBDA+CBNA+CBGA+CBCA+CBNDA; • 6=Chlorohexadine control, and • 7=control with no antiseptic.
Results of in vitro testing are defined in terms of efficacy of panel cannabinoids in in vitro suppressing oral flora, in increasing scale of: • −, +, ++, +++, ++++, +++++

| SMILES | reduction from the live bacterial cells [1] [%] | bacterial growth at streak applied to inoculum (dental plaque microbes) | most efficient compound on the plaque of the consumer ([2]; 25% dilution, grower A, FIG. 10) | reduction from the live bacterial cells ([2]; dental plaque) [%] | effectiveness against the flora (in words) ([3]; flora of patient B) | in vitro effectiveness of cannabinoids on dental bacteria ([3]; oral flora sample of patient A) | in vitro effectiveness of cannabinoids on dental bacteria ([3]; oral flora sample of patient B) | in vitro effectiveness of cannabinoids on dental bacteria ([3]; oral flora sample of patient C) | in vitro effectiveness of cannabinoids on dental bacteria ([3]; oral flora sample of patient D) | in vitro effectiveness of cannabinoids on dental bacteria ([3]; oral flora sample of patient E) | in vitro effectiveness of cannabinoids on dental bacteria ([3]; oral flora sample of patient F) | in vitro effectiveness of cannabinoids on dental bacteria ([3]; oral flora sample of patient G) | in vitro effectiveness of cannabinoids on dental bacteria ([3]; oral flora sample of patient H) | in vitro effectiveness of cannabinoids on dental bacteria ([3]; oral flora sample of patient I) | in vitro effectiveness of cannabinoids on dental bacteria ([3]; oral flora sample of patient J) |
| --- | --- | --- | --- | --- | --- | --- | --- | --- | --- | --- | --- | --- | --- | --- | --- |
| C=C(C)[C@@H]1CCC(C)=C[C@H]1c1c(O)cc(CCCCC)cc1O [CBD, Cannabidiol] | 92 | no bacterial growth |  |  |  |  |  |  |  |  |  |  |  |  |  |
| CCCCCc1cc(O)c(C/C=C(\C)CCC=C(C)C)c(O)c1C(=O)O [CBGA, Cannabigerolic acid] |  |  | most efficient | 95 |  |  |  |  |  |  |  |  |  |  |  |
| C=C(C)[C@@H]1CCC(C)=C[C@H]1c1c(O)cc(CCCCC)c(C(=O)O)c1O [Panel 1, Cannabidiolic acid] |  |  |  |  | effective | ++ | +++++ | ++++ | + | +++ | − | +++++ | ++ | − | − |
| [H]/N=C(\N/C(=N/[H])NCCCCCCNC(=N)NC(=N)Nc1ccc(Cl)cc1)Nc1ccc(Cl)cc1 [Panel 6, Chlorhexidine, reference compound] |  |  |  |  |  | ++ | ++ | + | ++ | − | − | +++ | + | ++ | − |

Source: patent publication US12198788B2, “System for detecting an intraoral disease and determining a personalized treatment scheme and method of doing same” (priority 2017, dated 2025)
